Where two headings read alike, the source gives them in different places.
How the values were obtained:
[1] = system: Xanthomonas 2880; experiment: CFU determination, broad spectrum activity; assay type: cell-based; details: 50 μg/ml, Xanthomonas 2880, untreated 10^7
[2] = system: Pseudomonas syringae pv tomato DC3000; experiment: PI staining, broad spectrum activity; assay type: cell-based; details: 50 μg/ml
[3] = system: Clavibacter michigense; experiment: CFU determination, broad spectrum activity; assay type: cell-based; details: 50 μg/ml, untreated 10^9
[4] = system: Sinorhizobium meliloti AK631; experiment: PI staining of Sinorhizobium meliloti; details: 50 μg/ml, Sinorhizobium meliloti (AK631)
[5] = system: Pseudomonas aeruginosa; experiment: PI staining, broad spectrum activity; assay type: cell-based; details: 50 μg/ml
[6] = system: Curtobacterium, flaccumfaciens; experiment: CFU determination, broad spectrum activity; assay type: cell-based; details: 50 μg/ml, untreated 10^9
[7] = system: Curtobacterium, flaccumfaciens; experiment: PI staining, broad spectrum activity; assay type: cell-based; details: 50 μg/ml
[8] = system: Arabidopsis (ecotype: wassilewskiya); experiment: Arabidopsis germination and seedling growth; details: 50 μg/ml=42 μM
[9] = system: Pseudomonas aeruginosa; experiment: CFU determination, broad spectrum activity; assay type: cell-based; details: 50 μg/ml
[10] = system: Xanthomonas 2880; experiment: PI staining, broad spectrum activity; assay type: cell-based; details: 50 μg/ml
[11] = system: Sinorhizobium meliloti AK631; experiment: CFU determination of Sinorhizobium meliloti; details: for CFU % / CFU (colony/ml): 1 hr; for CFU determination (colony formation): 3 hours, 2-3×10^6 bacteria, FIG. 2B; for CFU: Sinorhizobium meliloti (AK631), untreated 10^7
[12] = system: Bacillus subtilis; experiment: PI staining, broad spectrum activity; assay type: cell-based; details: 50 μg/ml
[13] = system: Pseudomonas syringae pv tomato DC3000; experiment: CFU determination, broad spectrum activity; assay type: cell-based; details: 50 μg/ml, Pseudomonas syringae pv tomato DC3000, untreated 10^7
[14] = system: Staphylococcus aureus; experiment: CFU determination, broad spectrum activity; assay type: cell-based; details: 50 μg/ml, untreated 10^6
[15] = system: Clavibacter michigense; experiment: PI staining, broad spectrum activity; assay type: cell-based; details: 50 μg/ml
[16] = system: Staphylococcus aureus; experiment: PI staining, broad spectrum activity; assay type: cell-based; details: 50 μg/ml
[17] = system: Bacillus subtilis; experiment: CFU determination, broad spectrum activity; assay type: cell-based; details: 50 μg/ml, untreated 10^6
[18] = system: Candida crusei; experiment: Antifungal activity in 96-well microtiter plates; assay type: cell-based; set-up: key: +++: high sensitivity, no hyphal growth; ++: medium sensitivity; +: low sensitivity; −: no effect; details: 24 h
[19] = system: Fusarium graminearum; assay type: cell-based; set-up: key: +++: high sensitivity, no hyphal growth; ++: medium sensitivity; +: low sensitivity; −: no effect; details: 24 h
[20] = system: Fusarium graminearum; assay type: cell-based; details: 50 μg/ml, same at 24 h and 48 h, FIGS. 11C and 11F
[21] = system: Aspergillus niger; experiment: Antifungal activity in 96-well microtiter plates; assay type: cell-based; set-up: key: +++: high sensitivity, no hyphal growth; ++: medium sensitivity; +: low sensitivity; −: no effect; details: 24 h
[22] = system: Candida parapsilosis; experiment: Antifungal activity in 96-well microtiter plates; assay type: cell-based; set-up: key: +++: high sensitivity, no hyphal growth; ++: medium sensitivity; +: low sensitivity; −: no effect; details: 24 h
[23] = system: Candida albicans; experiment: Antifungal activity in 96-well microtiter plates; assay type: cell-based; set-up: key: +++: high sensitivity, no hyphal growth; ++: medium sensitivity; +: low sensitivity; −: no effect; details: 24 h
[24] = system: Aspergillus flavus; experiment: Antifungal activity in 96-well microtiter plates; assay type: cell-based; set-up: key: +++: high sensitivity, no hyphal growth; ++: medium sensitivity; +: low sensitivity; −: no effect; details: 24 h
[25] = system: Rhizopus stolonifer var. stolonifer; experiment: Antifungal activity in 96-well microtiter plates; assay type: cell-based; set-up: key: +++: high sensitivity, no hyphal growth; ++: medium sensitivity; +: low sensitivity; −: no effect; details: 24 h

With Polymyxin B [reference compound] the CFU [1] was “CFU: 0”, the PI [2] was “PI: 95%” and the CFU [3] was “CFU: 0”. The PI [4] was “PI: 70%”, the PI [5] was “PI: 50%” and the CFU [6] was “CFU: 0”. For the same substance, the PI [7] was “PI: 60%”, the “effect on plant growth” value [8] was “inhibits growth” and the CFU ([9]; Pseudomonas aeruginosa, untreated 10^7) was “CFU: 0”. For the same substance, the PI [10] was “PI: 100%”, the CFU % ([11]; 50 μg/ml) was 0% and the “CFU (colony/ml)” value ([11]; 50 μg/ml) was 0 colony/ml. The “CFU determination (colony formation)” value ([11]; 50 μg/ml) was “none formed colony”, the CFU ([11]; 50 μg/ml) was “CFU: 10^5” and the PI [12] was “PI: 60%”. For the same substance, the CFU [13] was “CFU:0”, the CFU [14] was “CFU: 10^6” and the PI [15] was “PI: 60%”. The PI [16] was “PI: 75%” and the CFU [17] was “CFU: 10^6”.

In the case of “NCR247: cationic NCR peptide (RNGCIVDPRCPYQQCRRPLYCRRR; Peptide derived from Medicago truncatula)”, the CFU [1] is reported as “CFU: 0”, the PI [2] is reported as “PI: 60%” and the “Fungal (hyphal) growth, sensitivity” value ([18]; 25 μg/ml) is reported as “+++”. For the same substance, the “Fungal (hyphal) growth, sensitivity” value ([18]; 50 μg/ml) was “+++”, the “Fungal (hyphal) growth, sensitivity” value ([18]; 100 μg/ml) was “+++” and the CFU [3] was “CFU: 0”. The PI [4] was “PI: 70%”, the PI [5] was “PI: 15%” and the “Fungal (hyphal) growth, sensitivity” value ([19]; 25 μg/ml) was “++”. The “Fungal (hyphal) growth, sensitivity” value ([19]; 50 μg/ml) was “++”, the “Fungal (hyphal) growth, sensitivity” value ([19]; 100 μg/ml) was “++” and the CFU [6] was “CFU: 0”. For the same substance, the PI [7] was “PI: 27%”, the “spores and hyphae development” value [20] was “inhibits the spores and hyphae development” and the “CFU (FIG. 10)” value ([9]; strain resistant to conventional antibiotics) was “completely eradicated”. The “Fungal (hyphal) growth, sensitivity” value ([21]; 25 μg/ml) was “+++”, the “Fungal (hyphal) growth, sensitivity” value ([21]; 50 μg/ml) was “+++” and the “Fungal (hyphal) growth, sensitivity” value ([21]; 100 μg/ml) was “+++”. The PI [10] was “PI: 48%”, the “Fungal (hyphal) growth, sensitivity” value ([22]; 25 μg/ml) was “+++” and the “Fungal (hyphal) growth, sensitivity” value ([22]; 50 μg/ml) was “+++”. For the same substance, the “Fungal (hyphal) growth, sensitivity” value ([22]; 100 μg/ml) was “+++”, the CFU % ([11]; 20 μg/ml) was 0% and the “CFU (colony/ml)” value ([11]; 20 μg/ml) was 0 colony/ml. For the same substance, the CFU % ([11]; 50 μg/ml) was 0%, the “CFU (colony/ml)” value ([11]; 50 μg/ml) was 0 colony/ml and the “CFU determination (colony formation)” value ([11]; 50 μg/ml) was “none formed colony”. The CFU ([11]; 50 μg/ml) was “CFU: 0”, the “eradication of the bacteria” value ([11]; from the low dose of 20 μg/ml) was “able to eradicate the bacteria in less than an hour” and the PI [12] was “PI: 18%”. The CFU [13] was “CFU: 0”, the CFU [14] was “CFU: 10^5” and the “Fungal (hyphal) growth, sensitivity” value ([23]; 25 μg/ml) was “+++”. For the same substance, the “Fungal (hyphal) growth, sensitivity” value ([23]; 50 μg/ml) was “+++”, the “Fungal (hyphal) growth, sensitivity” value ([23]; 100 μg/ml) was “+++” and the “Fungal (hyphal) growth, sensitivity” value ([24]; 25 μg/ml) was “+++”. For the same substance, the “Fungal (hyphal) growth, sensitivity” value ([24]; 50 μg/ml) was “+++”, the “Fungal (hyphal) growth, sensitivity” value ([24]; 100 μg/ml) was “+++” and the PI [15] was “PI: 50%”. For the same substance, the PI [16] was “PI: 30%”, the “Fungal (hyphal) growth, sensitivity” value ([25]; 25 μg/ml) was “+++” and the “Fungal (hyphal) growth, sensitivity” value ([25]; 50 μg/ml) was “+++”. For the same substance, the “Fungal (hyphal) growth, sensitivity” value ([25]; 100 μg/ml) was “+++” and the CFU [17] was “CFU: 10^6”.
